# Data as given in PMC3914206.
# Tests used:
# panel of 442 kinases [1] = molecular target: T1, panel of 442 kinases (Homo sapiens, UniProt O14976); type: binding; details: Compound Concentration 10 µM
# T1 construct: purchased KINOMEscan
# T1 sequence (O14976 1-1311): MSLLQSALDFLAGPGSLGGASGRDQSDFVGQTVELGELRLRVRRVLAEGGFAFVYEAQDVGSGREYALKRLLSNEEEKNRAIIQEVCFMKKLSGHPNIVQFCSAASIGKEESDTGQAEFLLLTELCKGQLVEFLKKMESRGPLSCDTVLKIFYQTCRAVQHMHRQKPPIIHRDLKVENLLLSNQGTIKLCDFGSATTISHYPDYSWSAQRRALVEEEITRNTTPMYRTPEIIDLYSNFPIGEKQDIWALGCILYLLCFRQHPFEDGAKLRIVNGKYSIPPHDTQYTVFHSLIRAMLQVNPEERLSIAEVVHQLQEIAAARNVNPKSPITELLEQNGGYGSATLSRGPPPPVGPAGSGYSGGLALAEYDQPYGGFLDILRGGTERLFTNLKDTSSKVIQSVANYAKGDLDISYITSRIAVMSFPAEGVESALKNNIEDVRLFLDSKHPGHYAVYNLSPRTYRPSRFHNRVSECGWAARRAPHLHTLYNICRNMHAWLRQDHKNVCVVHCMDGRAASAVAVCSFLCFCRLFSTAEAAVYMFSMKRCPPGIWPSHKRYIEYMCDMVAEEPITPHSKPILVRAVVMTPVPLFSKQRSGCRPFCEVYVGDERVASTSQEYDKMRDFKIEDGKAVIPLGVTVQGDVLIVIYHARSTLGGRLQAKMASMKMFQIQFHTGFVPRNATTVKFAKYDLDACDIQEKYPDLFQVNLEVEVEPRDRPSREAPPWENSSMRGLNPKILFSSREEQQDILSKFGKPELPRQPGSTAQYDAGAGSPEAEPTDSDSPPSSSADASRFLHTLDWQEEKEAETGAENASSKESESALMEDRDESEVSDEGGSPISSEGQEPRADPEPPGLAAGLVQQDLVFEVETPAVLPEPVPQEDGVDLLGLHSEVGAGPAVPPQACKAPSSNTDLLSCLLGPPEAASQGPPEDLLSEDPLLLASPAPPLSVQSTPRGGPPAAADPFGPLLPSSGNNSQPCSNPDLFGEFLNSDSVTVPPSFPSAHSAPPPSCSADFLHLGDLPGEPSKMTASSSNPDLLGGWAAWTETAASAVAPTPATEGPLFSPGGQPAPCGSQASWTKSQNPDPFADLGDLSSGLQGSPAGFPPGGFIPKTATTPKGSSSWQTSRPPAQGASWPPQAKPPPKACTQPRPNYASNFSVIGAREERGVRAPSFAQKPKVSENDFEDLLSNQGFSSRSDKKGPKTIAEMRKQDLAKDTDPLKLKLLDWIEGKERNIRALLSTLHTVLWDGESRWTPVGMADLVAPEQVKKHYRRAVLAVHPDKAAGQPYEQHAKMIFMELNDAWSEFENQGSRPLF
# Source text: (§1) We assessed the selectivity of members of this scaffold using the KINOMEscan methodology across a near comprehensive panel of 442 kinases [[18,27]].
# panel of 442 kinases [2] = molecular target: T2, panel of 442 kinases (Homo sapiens, UniProt Q6DT37); type: binding; details: Compound Concentration 10 µM
# T2 construct: purchased KINOMEscan
# T2 sequence (Q6DT37 whole entry): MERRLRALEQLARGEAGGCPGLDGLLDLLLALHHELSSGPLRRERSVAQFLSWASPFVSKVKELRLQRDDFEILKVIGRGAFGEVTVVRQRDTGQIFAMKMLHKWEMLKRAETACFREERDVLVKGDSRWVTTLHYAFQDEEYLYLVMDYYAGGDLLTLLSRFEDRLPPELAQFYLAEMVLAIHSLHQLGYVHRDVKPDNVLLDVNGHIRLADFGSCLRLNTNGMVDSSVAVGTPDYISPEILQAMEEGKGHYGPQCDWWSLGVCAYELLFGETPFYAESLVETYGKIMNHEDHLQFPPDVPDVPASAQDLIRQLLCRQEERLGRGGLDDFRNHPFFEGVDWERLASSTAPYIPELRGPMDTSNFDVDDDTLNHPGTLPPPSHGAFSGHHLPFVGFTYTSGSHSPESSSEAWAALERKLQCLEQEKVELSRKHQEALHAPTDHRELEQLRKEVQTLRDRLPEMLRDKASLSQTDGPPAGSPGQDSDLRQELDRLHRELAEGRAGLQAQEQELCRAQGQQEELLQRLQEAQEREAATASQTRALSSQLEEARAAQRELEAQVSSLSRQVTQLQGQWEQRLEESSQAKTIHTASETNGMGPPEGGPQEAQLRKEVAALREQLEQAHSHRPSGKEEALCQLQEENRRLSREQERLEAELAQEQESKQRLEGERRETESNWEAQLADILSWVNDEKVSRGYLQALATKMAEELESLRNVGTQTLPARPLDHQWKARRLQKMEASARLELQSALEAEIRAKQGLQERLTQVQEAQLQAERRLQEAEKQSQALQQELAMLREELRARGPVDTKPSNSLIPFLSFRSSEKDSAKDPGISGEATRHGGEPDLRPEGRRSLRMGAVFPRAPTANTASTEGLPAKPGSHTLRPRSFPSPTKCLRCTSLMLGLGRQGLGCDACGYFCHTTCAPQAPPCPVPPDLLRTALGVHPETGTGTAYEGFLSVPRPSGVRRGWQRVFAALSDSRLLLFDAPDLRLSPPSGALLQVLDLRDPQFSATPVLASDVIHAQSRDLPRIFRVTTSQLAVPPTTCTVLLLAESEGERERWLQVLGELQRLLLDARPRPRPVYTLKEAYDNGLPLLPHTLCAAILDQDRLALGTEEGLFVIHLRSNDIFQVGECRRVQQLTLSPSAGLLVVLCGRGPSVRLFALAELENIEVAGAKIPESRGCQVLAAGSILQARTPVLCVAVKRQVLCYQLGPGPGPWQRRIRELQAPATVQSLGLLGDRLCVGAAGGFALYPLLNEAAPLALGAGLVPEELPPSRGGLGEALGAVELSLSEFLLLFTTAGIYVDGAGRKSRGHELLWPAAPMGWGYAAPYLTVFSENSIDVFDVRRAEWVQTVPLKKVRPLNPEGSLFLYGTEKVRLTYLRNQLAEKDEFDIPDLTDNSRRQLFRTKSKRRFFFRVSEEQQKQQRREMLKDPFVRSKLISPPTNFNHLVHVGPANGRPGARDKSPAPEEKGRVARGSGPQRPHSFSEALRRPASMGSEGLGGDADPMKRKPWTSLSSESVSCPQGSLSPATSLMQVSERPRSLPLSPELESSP
# Source text: as §1
Structure (SMILES),KINOMEscan: GAK (panel of 442 kinases [1]),KINOMEscan: DMPK2 (panel of 442 kinases [2])
CCOc1cc(C(=O)N2CCC(N3CCN(C)CC3)CC2)ccc1Nc1ncc2c(n1)N(C1CCCC1)c1ccccc1C(=O)N2C [Compound 26],100,100
"COc1cc(C(=O)N2CCC(N3CCN(C)CC3)CC2)ccc1Nc1ncc2c(n1)N(C1CCCC1)c1ccccc1C(=O)N2C [Compound 25, 11-cyclopentyl-2-((2-methoxy-4-(4-(4-methylpiperazin-1-yl)piperidine-1-carbonyl)phenyl)amino)-5-methyl-5H-benzo[e]pyrimido[5,4-b][1,4]diazepin-6(11H)-one]",82,94
COc1cc(C(=O)N2CCC(N3CCN(C)CC3)CC2)ccc1Nc1ncc2c(n1)N1CCc3cccc(c31)C(=O)N2C [Compound 24],19,
COc1cc(C(=O)N2CCC(N3CCN(C)CC3)CC2)ccc1Nc1ncc2c(n1)N(C)c1ccccc1C(=O)N2C [15 (LRRK2-IN-1)],16,100
